{"source": "patent US9157104B2", "about": "“Method to improve phosphate solubilization in plants” (Consiglio Nazionale delle Ricerche, priority 2009, dated 2015)", "key": {"[1]": {"assay": "Soluble phosphate release into bacterial free medium containing 5% PR", "details": "bacteria free media with addition of IAA (0.5 mM)", "from_the_text": "FIG. 4. Changes in soluble phosphate release into the bacterial free medium containing 5% phosphate rock (PR) as P source (P-limiting conditions for bacteria growing in a minimal media with PR). […] The amounts of each added organic acids derived from the data obtained in HPLC analysis and were reported in the Material and Methods section. Data are the mean±SD of five independent biological experiments (p<0.006). The concentration of soluble phosphate was estimated using a modification of Fiske and Subarrow method as described by […] et al. (37). […] Bacterial free medium was also treated with 0.5 mM IAA solution. A media that simulates growth is a media without bacteria or their supernatant. The media comprises only RP and the organic acids used as purified powder commercially available (SIGMA), the organic acids concentration used are that produced by the bacteria when grown in a defined media (with IAA, or without, or from RFD64)."}, "S. meliloti 1021": {"test_system": "S. meliloti 1021", "assay": "Microarray gene expression of 1021 cells treated with 0.5 mM compound;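 note: cells were harvested 3 h after the start of each treatment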", "details": "1021 + 0.5 mM IAA vs untreated 1021; P-sufficient (13 mM)", "description": "For P starvation experiments, cells of 1021 wild-type and RD64 strains were grown at 30° C. to mid exponential phase (OD600=0.6) in RMM broth containing 1% (w/v) mannitol as carbon source and 13 mM P, washed with RMM containing 0 P, resuspended in the same medium and then divided into three cultures. No P (−P), 1.0 mM P (P-starved cells) or 13 mM P (+P cells also named P-sufficient cells) was added into the three cultures, respectively. The P-starved and P-sufficient 1021 wild type cells were treated for 3.0 hours with 0.5 mM IAA. […] To rule out that this bacteria could be partially starved for Trp, RD64 cells were also treated with 0.5 mM Trp and used for microarrays and RT-PCR analyses. […] After 3 hours of each treatment, cell batches were collected, freezed and stored at −80° C. for use in experiments."}, "[2]": {"test_system": "pho operon genes in S. meliloti cells", "assay": "Quantitative RT-PCR analysis of pho operon genes", "format": "cell-based", "details": "compounds 0.5 mM, 3 hours", "method": "FIG. S1. Quantitative RT-PCR analysis of pho operon genes in S. meliloti cells under P-sufficient conditions (13 mM K-phosphate). The relative expression level was >1 for genes more highly expressed in RD64 and in 1021 cells treated for 3 hours with 0.5 mM IAA, Ind, Trp, ICA and 2,4-D. The relative expression level was <1 for genes more highly expressed in 1021 cells (control). Error bars represent the standard deviation from three independent biological experiments.\nFIG. 1. Quantitative RT-PCR analysis of pho operon genes expression in S. meliloti cells under P-starving conditions. The relative expression level was >1 for genes more highly expressed in RD64 and in 1021 cells treated for 3 hours with 0.5 mM IAA, Ind, Trp, ICA and 2,4-D. The relative expression level was <1 for genes more highly expressed in 1021 cells (control). Error bars represent the standard deviation from five independent biological experiments (p<0.05).\nTotal RNA from P-sufficient and P-starved cells was isolated as previously described (5). cDNA were synthesized with the StrataScript™ reverse transcription reagents (Stratagene) and random hexamers as primers. Quantitative PCR was performed with the Power SYBR PCR Master Mix (Applied Biosystems). Reactions were run on the iCycler iQ (Bio-Rad). The thermo cycling condition were: 15 min at 95° C., 40 cycles of denaturation at 95° C. for 20 s, annealing (20 s) and extension (35 s) at 72° C. Specific primer pairs, designed using the Primer3 software, are shown.\nsmc02641 and smc00128 were used as housekeeping genes for data normalization in the comparative Ct method as previously described (8). Phosphatase Activity"}, "S. meliloti cells": {"test_system": "S. meliloti cells", "assay": "Organic acids exuded by S. meliloti cells (HPLC, GC-MS)", "format": "cell-based", "details": "minimal medium containing 5% PR as the sole phosphate source; IAA 0.5 mM where added", "method": "For phosphate solubilization experiments 5% Moroccan phosphate rock (PR) (Sigma-Aldrich, cat. No. 32) was used as P source. When 5% PR is used as P source to allow bacterial growth this is described as a P-limiting condition. At least five independent experiments were always performed.\nThe organic acids were determined by HPLC with a reverse-phase Hypersil GOLD C18 (100×4.6 mm) column (Thermo Electron Corporation). The operating conditions and quantification were previously described (20).\nOrganic acid fractions collected from HPLC were dried, derivatized to their tert-butyldimethylsilyl (tBDMS) derivatives and analysed on a Micromass GCT mass spectrometer (Waters corp, Manchester, UK) coupled to an Agilent 6890 Series gas chromatograph fitted with 7683 auto-sampler (Agilent Technologies, Palo Alto, Calif.) and ZB-5 ms (Phenomenex, Macclesfield, UK) caplillary column (30 m×0.25 mm I.D.×0.25 μm d.f. with 5 m Guardian). Samples were injected using splitless injection technique at 250° C. and a helium gas flow of 2.0 ml min^−1. The oven was set at 70° C. for 2 min, then ramped at 7° C. min^−1 to 350° C. and held for 5 min. The GC interface and source temperatures were set to 250° C. and EI^+ mass spectra were acquired at 70 eV from 0 to 47 min with an acquisition rate of 1 spectra/sec. Chromatographic peaks were identified either from existing mass spectral and retention time data from standards previously analysed at Rothamsted Research LTD (Harpenden Herts, UK) or from the NIST mass spectral database in conjunction with retention data obtained from the literature (30). Determination of the accurate mass, to within 5 ppm, of M^+, M-15^+, M-57^+ was used to verify analyte identifications. The chromatograms obtained for each sample were compared to the derivatization reagent blank."}, "acid phosphatase": {"test_system": "acid phosphatase", "assay": "Acid phosphatase activity under P-starved conditions", "format": "cell-based, S. meliloti", "details": "phosphate starvation; vs 1021 cells; compounds 0.5 mM, 3 hours at 30° C."}}}
{"smiles": "O=C(O)Cc1c[nH]c2ccccc12", "note": "[IAA, indole-3-acetic acid]", "values": [{"measurement": "concentration of soluble P in bacteria free media", "setting": "[1]", "value": "negligible"}, {"measurement": "M (log2 ratio of intensities) Mc01302 rplP", "setting": "S. meliloti 1021", "value": "−1.862"}, {"measurement": "M (log2 ratio of intensities) SMa1118 hspC2", "setting": "S. meliloti 1021", "value": 1.296}, {"measurement": "M (log2 ratio of intensities) SMb20893 gguB", "setting": "S. meliloti 1021", "value": 1.754}, {"measurement": "M (log2 ratio of intensities) SMb20895 chvE", "setting": "S. meliloti 1021", "value": 1.425}, {"measurement": "M (log2 ratio of intensities) SMb20922 smb20922", "setting": "S. meliloti 1021", "value": 1.711}, {"measurement": "M (log2 ratio of intensities) SMb21174 phoT", "setting": "S. meliloti 1021", "value": "−1.207"}, {"measurement": "M (log2 ratio of intensities) SMb21177 phoC", "setting": "S. meliloti 1021", "value": "−0.7939"}, {"measurement": "M (log2 ratio of intensities) SMb21183 htpG", "setting": "S. meliloti 1021", "value": 1.384}, {"measurement": "M (log2 ratio of intensities) SMb21197 oppB", "setting": "S. meliloti 1021", "value": 1.111}, {"measurement": "M (log2 ratio of intensities) SMc00363 rpmI", "setting": "S. meliloti 1021", "value": "−0.9807"}, {"measurement": "M (log2 ratio of intensities) SMc00364 rplT", "setting": "S. meliloti 1021", "value": "−0.715"}, {"measurement": "M (log2 ratio of intensities) SMc00568 rpsF", "setting": "S. meliloti 1021", "value": "−0.7616"}, {"measurement": "M (log2 ratio of intensities) SMc01103 rbsK", "setting": "S. meliloti 1021", "value": 1.2}, {"measurement": "M (log2 ratio of intensities) SMc01169 ald", "setting": "S. meliloti 1021", "value": 3.025}, {"measurement": "M (log2 ratio of intensities) SMc01291 rpmD", "setting": "S. meliloti 1021", "value": "−1.237"}, {"measurement": "M (log2 ratio of intensities) SMc01295 rpsH", "setting": "S. meliloti 1021", "value": "−0.8996"}, {"measurement": "M (log2 ratio of intensities) SMc01296 rpsN", "setting": "S. meliloti 1021", "value": "−0.8326"}, {"measurement": "M (log2 ratio of intensities) SMc01301 rpmC", "setting": "S. meliloti 1021", "value": "−1.273"}, {"measurement": "M (log2 ratio of intensities) SMc01309 rplC", "setting": "S. meliloti 1021", "value": "−0.7247"}, {"measurement": "M (log2 ratio of intensities) SMc01319 rplJ", "setting": "S. meliloti 1021", "value": "−1.438"}, {"measurement": "M (log2 ratio of intensities) SMc01628 smc01628", "setting": "S. meliloti 1021", "value": 0.7123}, {"measurement": "M (log2 ratio of intensities) SMc02475 smc02475", "setting": "S. meliloti 1021", "value": 0.7339}, {"measurement": "M (log2 ratio of intensities) SMc02514 smc02514", "setting": "S. meliloti 1021", "value": 1.764}, {"measurement": "M (log2 ratio of intensities) SMc02729 smc02729", "setting": "S. meliloti 1021", "value": 0.8942}, {"measurement": "M (log2 ratio of intensities) SMc02786 smc02786", "setting": "S. meliloti 1021", "value": 1.11}, {"measurement": "M (log2 ratio of intensities) SMc03168 smc03168", "setting": "S. meliloti 1021", "value": 1.165}, {"measurement": "M (log2 ratio of intensities) SMc04087 smc04087", "setting": "S. meliloti 1021", "value": 1.593}, {"measurement": "expression level of all five pho genes (RT-PCR)", "setting": "[2]; P-starved conditions, vs control 1021", "value": "highly induced"}, {"measurement": "phoB regulatory gene expression (qRT-PCR)", "setting": "[2]; P-sufficient (13 mM K-phosphate), vs untreated 1021 cells", "value": "down-regulated"}, {"measurement": "Organic acid content, Fumarate", "setting": "S. meliloti cells", "value": "1.7 ± 0.1", "unit": "mg/L"}, {"measurement": "Organic acid content, Malate", "setting": "S. meliloti cells", "value": "86 ± 10", "unit": "mg/L"}, {"measurement": "Organic acid content, Succinate", "setting": "S. meliloti cells", "value": "864 ± 79", "unit": "mg/L"}, {"measurement": "acid phosphatase activity", "setting": "acid phosphatase", "value": "increase"}]}
